From patent US11319321B2, “[1,2,4]triazolo[1,5-a]pyrimidine compounds as PDE2 inhibitors” (Janssen Pharmaceutica NV, priority 2016, dated 2022)
Like-named read-outs stand apart in the source and are kept apart here.

How the values were obtained:
[1] = molecular target: T1, Human recombinant PDE2A (hPDE2A) (Homo sapiens, UniProt O00408); assay: In vitro assay PDE2A (SPA, 3H-cGMP); type: biochemical
T1 construct: made in house; host or cells: Sf9 insect cells (baculovirus)
Description: Human recombinant PDE2A (hPDE2A) was expressed in Sf9 cells using a recombinant rPDE10A baculovirus construct. Cells were harvested after 48 h of infection and the hPDE2A protein was purified by metal chelate chromatography on Ni-sepharose 6FF. Tested compounds were dissolved and diluted in 100% DMSO to a concentration 100 fold of the final concentration in the assay. Compound dilutions (0.4 μl) were added in 384 well plates to 20 μl of incubation buffer (50 mM Tris pH 7.8, 8.3 mM MgCl2, 1.7 mM EGTA). 10 μl of hPDE2A enzyme in incubation buffer was added and the reaction was started by addition of 10 μl substrate to a final concentration of 10 μM cGMP and 0.01 μCi ^3H-cGMP. The reaction was incubated for 45 minutes at room temperature. […] After sedimentation of the beads during 30 minutes the radioactivity was measured in a Perkin Elmer Topcount scintillation counter and results were expressed as cpm. For blanc values the enzyme was omitted from the reaction and replaced by incubation buffer. Control values were obtained by addition of a final concentration of 1% DMSO instead of compound.

hPDE3B = assay: In vitro assay PDE3 (SPA, 3H-cAMP); type: biochemical, human; settings: 0.4 μM cAMP substrate; for hPDE3B Emax: in % (unit assumed)
hPDE10A2 = hPDE10A2 (Homo sapiens, UniProt Q9Y233); assay: biochemical; settings: 60 nM cAMP substrate; for IC50: read-out: hPDE10A2 or rPDE10A2 pIC50 (converted); for Emax: read-out: hPDE10A2 or rPDE10A2 Emax, human clone
hPDE10A2, sequence (Q9Y233 267-1055): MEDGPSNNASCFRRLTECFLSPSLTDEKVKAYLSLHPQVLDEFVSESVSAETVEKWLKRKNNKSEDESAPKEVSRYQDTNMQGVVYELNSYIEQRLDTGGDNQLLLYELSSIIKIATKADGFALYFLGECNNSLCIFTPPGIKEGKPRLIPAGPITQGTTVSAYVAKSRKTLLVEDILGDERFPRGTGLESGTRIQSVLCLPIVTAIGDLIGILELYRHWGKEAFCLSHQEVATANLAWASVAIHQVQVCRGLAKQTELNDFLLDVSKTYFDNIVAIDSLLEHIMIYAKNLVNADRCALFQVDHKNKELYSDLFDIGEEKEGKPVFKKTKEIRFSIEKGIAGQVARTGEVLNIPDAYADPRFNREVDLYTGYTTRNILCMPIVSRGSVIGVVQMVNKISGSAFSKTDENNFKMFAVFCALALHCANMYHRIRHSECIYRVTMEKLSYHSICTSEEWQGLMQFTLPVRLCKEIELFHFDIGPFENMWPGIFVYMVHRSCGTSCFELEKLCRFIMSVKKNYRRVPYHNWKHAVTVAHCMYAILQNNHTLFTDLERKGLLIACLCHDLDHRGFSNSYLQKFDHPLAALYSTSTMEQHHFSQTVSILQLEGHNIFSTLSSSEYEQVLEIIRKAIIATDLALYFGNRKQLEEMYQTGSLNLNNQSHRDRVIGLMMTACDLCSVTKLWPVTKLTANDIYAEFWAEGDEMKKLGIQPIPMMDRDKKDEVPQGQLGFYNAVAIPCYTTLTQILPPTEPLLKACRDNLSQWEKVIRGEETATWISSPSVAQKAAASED
Description: (§1) Rat recombinant PDE10A (rPDE10A2) was expressed in Sf9 cells using a recombinant rPDE10A baculovirus construct. Cells were harvested after 48 h of infection and the rPDE10A protein was purified by metal chelate chromatography on Ni-sepharose 6FF. Tested compounds were dissolved and diluted in 100% DMSO to a concentration 100 fold of the final concentration in the assay. Human recombinant PDE10A ([…]) was expressed in Sf9 cells using a recombinant hPDE10A baculovirus that was made and amplified in house. Cells were harvested after 72 h of infection and the hPDE10A protein was purified by metal chelate chromatography on Ni-sepharose. Compound dilutions (0.4 μl) were added in 384 well plates to 20 μl of incubation buffer (50 mM Tris pH 7.8, 8.3 mM MgCl2, 1.7 mM EGTA). 10 μl of rPDE10A or hPDE10A enzyme in incubation buffer was added and the reaction was started by addition of 10 μl substrate to a final concentration of 60 nM cAMP and […] ^3H-cAMP. The reaction was incubated for 60 minutes at room temperature. After incubation, the reaction was stopped with 20 μl of stop solution consisting of 17.8 mg/ml PDE SPA (scintillation proximity assay) beads. After sedimentation of the beads during 30 minutes the radioactivity was measured in a Perkin Elmer Topcount scintillation counter and results were expressed as cpm. For blanc values the enzyme was omitted from the reaction and replaced by incubation buffer. Control values were obtained by addition of a final concentration of 1% DMSO instead of compound. A best fit curve is fitted by a minimum sum of squares method to the plot of % of control value substracted with blanc value versus compound concentration and the half maximal inhibitory concentration (IC50) value is derived from this curve.

PDE2A = molecular target: T2, PDE2A (Rattus norvegicus, UniProt Q01062); assay: PDE2 occupancy by ex-vivo autoradiography with [3H]B-17a; type: in vivo; settings: read-out: PDE2 occupancy at 10 mg/kg
T2 construct: Twenty μm-thick striatal sections were cut; from tissue; host or cells: rat brain, striatal sections
T2 sequence (Q01062 1-928): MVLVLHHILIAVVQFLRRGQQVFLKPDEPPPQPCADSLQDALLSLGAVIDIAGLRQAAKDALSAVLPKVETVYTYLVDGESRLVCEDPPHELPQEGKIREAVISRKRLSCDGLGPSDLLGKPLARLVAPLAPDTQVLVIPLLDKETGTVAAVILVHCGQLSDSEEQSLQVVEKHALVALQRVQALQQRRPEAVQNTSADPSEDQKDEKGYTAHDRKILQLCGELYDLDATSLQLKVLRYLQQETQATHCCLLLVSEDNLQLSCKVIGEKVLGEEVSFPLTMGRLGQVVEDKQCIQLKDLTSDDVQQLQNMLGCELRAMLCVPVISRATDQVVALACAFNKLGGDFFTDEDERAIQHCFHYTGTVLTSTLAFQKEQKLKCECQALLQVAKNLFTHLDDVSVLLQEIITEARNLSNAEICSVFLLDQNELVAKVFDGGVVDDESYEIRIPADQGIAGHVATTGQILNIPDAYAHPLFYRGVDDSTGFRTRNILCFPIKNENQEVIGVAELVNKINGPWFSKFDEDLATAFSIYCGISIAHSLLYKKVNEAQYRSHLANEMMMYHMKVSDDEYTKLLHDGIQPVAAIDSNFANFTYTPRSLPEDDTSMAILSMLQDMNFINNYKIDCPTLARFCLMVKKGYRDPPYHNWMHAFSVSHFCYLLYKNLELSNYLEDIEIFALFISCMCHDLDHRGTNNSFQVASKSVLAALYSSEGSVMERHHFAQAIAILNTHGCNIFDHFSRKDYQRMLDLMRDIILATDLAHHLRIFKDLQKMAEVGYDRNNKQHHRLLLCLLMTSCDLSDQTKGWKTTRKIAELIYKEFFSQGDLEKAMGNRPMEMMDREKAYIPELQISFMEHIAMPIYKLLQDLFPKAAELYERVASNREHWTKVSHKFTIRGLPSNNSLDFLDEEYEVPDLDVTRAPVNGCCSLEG
Description: Brains were immediately removed from the skull and rapidly frozen in dry-ice cooled 2-methylbutane (−40° C.).
After thawing, sections were dried under a cold stream of air and incubated for one minute with 30 nM [^3H]B-17a in Tris-HCl (50 mM, pH7.4) containing 0.3% BSA. Brain sections from drug-treated and vehicle-treated animals were incubated in parallel. […] After incubation, the excess of [^3H]B-17a was washed off in ice-cold buffer 2 times 10 minutes, followed by a quick dip in distilled water. The sections were then dried under a stream of cold air.
Brain sections were loaded in a […] (Biospace, Paris) for 4 h and radioactivity emerging from delineated brain area was quantified using the Beta vision program (Biospace, Paris). Specific binding was determined as the difference between total binding in the striatum and non-specific binding in the cerebellum. Percentage receptor occupancy of the drug administered to the animal corresponded to 100% minus the percentage receptor labeled in the treated animal. For the determination of ED50-values, the percentage of receptor occupancy was plotted against dose and the sigmoidal log dose-effect curve of best fit was calculated by non-linear regression analysis, using the GraphPad Prism program.

rPDE10A2 = molecular target: T3, rPDE10A2 (Rattus norvegicus, UniProt Q9QYJ6); assay: In vitro assay PDE10A, rat clone (SPA, 3H-cAMP); type: biochemical; settings: for IC50: rat clone (r), 60 nM cAMP substrate, read-out: hPDE10A2 or rPDE10A2 pIC50 (converted); for Emax: read-out: hPDE10A2 or rPDE10A2 Emax
T3 construct: made in house; host or cells: Sf9 insect cells (baculovirus)
T3 sequence (Q9QYJ6 1-794): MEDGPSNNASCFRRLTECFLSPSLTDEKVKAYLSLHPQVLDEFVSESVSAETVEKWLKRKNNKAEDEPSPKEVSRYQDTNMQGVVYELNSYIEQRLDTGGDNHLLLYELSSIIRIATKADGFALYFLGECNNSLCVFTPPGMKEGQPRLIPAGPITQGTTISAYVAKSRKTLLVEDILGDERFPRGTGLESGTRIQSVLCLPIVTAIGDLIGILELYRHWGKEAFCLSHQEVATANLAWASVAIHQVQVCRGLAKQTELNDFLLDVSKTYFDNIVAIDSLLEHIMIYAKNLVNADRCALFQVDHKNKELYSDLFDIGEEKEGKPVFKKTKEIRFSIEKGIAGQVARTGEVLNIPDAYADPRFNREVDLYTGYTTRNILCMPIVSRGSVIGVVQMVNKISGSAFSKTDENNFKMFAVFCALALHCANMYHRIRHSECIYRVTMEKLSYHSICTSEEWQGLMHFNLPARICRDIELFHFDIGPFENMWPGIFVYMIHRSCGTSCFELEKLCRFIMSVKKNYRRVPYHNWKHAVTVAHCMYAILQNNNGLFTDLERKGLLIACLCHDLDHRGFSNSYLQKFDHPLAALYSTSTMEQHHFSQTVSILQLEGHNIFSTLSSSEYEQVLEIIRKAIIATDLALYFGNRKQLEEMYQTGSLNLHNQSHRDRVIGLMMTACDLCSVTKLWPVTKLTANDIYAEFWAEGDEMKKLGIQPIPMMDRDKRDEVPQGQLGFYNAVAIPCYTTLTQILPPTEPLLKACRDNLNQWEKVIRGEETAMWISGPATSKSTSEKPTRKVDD
Description: as §1

[2] = hPDE2A pIC50, 10 μM cGMP substrate
[3] = male Wistar rats, 10 mg/kg SC (subcutaneous), striatum, percentage occupancy

T1 sequence (O00408 whole entry): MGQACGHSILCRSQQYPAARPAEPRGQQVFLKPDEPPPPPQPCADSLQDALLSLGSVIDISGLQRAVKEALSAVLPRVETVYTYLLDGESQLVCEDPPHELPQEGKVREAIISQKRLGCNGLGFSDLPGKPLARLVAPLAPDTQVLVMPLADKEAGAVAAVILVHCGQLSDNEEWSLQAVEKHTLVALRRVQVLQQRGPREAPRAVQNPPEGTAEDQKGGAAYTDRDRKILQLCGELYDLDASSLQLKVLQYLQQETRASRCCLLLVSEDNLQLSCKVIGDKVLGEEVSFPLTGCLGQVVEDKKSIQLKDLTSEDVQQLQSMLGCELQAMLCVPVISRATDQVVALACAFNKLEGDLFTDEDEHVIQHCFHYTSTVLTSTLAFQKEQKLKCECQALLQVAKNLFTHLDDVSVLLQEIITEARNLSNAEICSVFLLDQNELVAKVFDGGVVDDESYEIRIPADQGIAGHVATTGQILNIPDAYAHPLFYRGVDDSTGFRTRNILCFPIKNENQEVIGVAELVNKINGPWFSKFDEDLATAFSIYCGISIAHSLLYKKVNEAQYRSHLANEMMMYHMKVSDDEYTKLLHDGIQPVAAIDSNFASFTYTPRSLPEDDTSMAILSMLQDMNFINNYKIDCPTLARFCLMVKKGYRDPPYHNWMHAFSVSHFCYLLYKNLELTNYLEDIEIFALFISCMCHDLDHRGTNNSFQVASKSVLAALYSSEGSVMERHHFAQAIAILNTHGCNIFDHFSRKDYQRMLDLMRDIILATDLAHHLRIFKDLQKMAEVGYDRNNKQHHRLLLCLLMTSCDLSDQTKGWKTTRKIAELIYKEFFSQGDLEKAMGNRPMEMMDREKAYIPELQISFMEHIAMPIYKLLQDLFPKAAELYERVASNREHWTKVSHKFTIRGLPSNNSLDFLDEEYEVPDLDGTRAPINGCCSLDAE

| SMILES | Emax ([1]; 10 μM cGMP substrate) [%] | IC50 ([1]; 10 μM cGMP substrate, read-out: hPDE2A pIC50 (converted)) [nM] | hPDE3B pIC50 (hPDE3B) | hPDE3B Emax (hPDE3B) | IC50 (hPDE10A2; human clone) [nM] | Emax (hPDE10A2) [%] | receptor occupancy at 10 mg/kg (PDE2A; po) [%] | IC50 [1, 2] [nM] | melting point [°C] | hPDE2A Emax ([1]; 10 μM cGMP substrate) | hPDE10A2 or rPDE10A2 Emax (hPDE10A2; human clone) | receptor occupancy at 10 mg/kg (PDE2A; [3]) [%] | IC50 [1] [nM] | IC50 (rPDE10A2) [nM] | Emax (rPDE10A2) [%] |
| --- | --- | --- | --- | --- | --- | --- | --- | --- | --- | --- | --- | --- | --- | --- | --- |
| Cc1cc([C@@H](C)N2CC[C@@H](C)[C@H](c3cc(C(F)F)nc4ncnn34)C2)cc(C2CC2)n1 (relative stereo) [Compound 3] | 100 | 13.5 | <5 | 19 | 1260 | 91 | 21 |  |  |  |  |  |  |  |  |
| Cc1cc(C(C)N2CC[C@@H](C)[C@H](c3cc(C(F)F)nc4ncnn34)C2)cc(C)n1 (single isomer, unassigned) [Compound 1a, 5-(difluoromethyl)-7-[(3 S,4R)-1-[(1R*)-1-(2,6-dimethyl-4-pyridyl)ethyl]-4-methyl-3-piperidyl]-[1,2,4]triazolo[1,5-a]pyrimidine] | 99 |  | <5 | 34 | 5620 | 64 |  | 102 | 141.46 |  |  |  |  |  |  |
| Cc1cc(C(C)N2CC[C@@H](C)[C@H](c3cc(C(F)F)nc4ncnn34)C2)cc(C)n1 (single isomer, unassigned) [Compound 1b, 5-(difluoromethyl)-7-[(3 S,4R)-1-[(1S*)-1-(2,6-dimethyl-4-pyridyl)ethyl]-4-methyl-3-piperidyl]-[1,2,4]triazolo[1,5-a]pyrimidine] |  |  | <5 | 19 | 2880 |  |  | 11.7 |  | 100 | 80 | 42 |  |  |  |
| C[C@@H]1CCN(Cc2cc3ccccc3cn2)C[C@H]1c1cc(C(F)F)nc2ncnn12 [Compound 8] | 100 |  | 5.09 | 61 | 1480 | 85 |  | 8.51 |  |  |  | 0 |  |  |  |
| C[C@@H]1CCN(Cc2cccc(N3CCCCC3)n2)C[C@H]1c1cc(C(F)F)nc2ncnn12 [Compound 17] | 100 |  | <5 | 41 | > 10000 | 49 |  | 195 | 137.52 |  |  |  |  |  |  |
| Cc1cc(CN2CCCC(C)(c3cc(C(F)F)nc4ncnn34)C2)cc(Cl)n1 (stereo not shown) [Compound 28] | 16 |  | <5 | 10 |  |  |  |  |  |  |  |  | 5620 | > 10000 | 7.2 |
| Cc1cc(CN2CC[C@@H](C)[C@H](c3cc(C(F)F)nc4ncnn34)C2)cc(C)n1.Cl [Compound 33] | 96 |  | <5 | 8 | 4070 | 72 |  |  |  |  |  | 37 | 22.4 |  |  |
| C[C@@H]1CCN(Cc2ccc3nccn3c2)C[C@H]1c1cc(C(F)F)nc2ncnn12 [Compound 34] | 91 |  | <5 | 18 | 4680 | 67 | 0 |  |  |  |  |  | 22.9 |  |  |
| Cc1cc(CN2CC[C@@H](C)[C@H](c3cc(C(F)F)nc4ncnn34)C2)cc(C)c1Cl.Cl [Compound 36] | 100 |  |  | 43 | 3720 | 82 | 0 |  |  |  |  |  | 56.2 |  |  |
| FC(F)c1cc(C2CCCN(Cc3cc4ccccc4o3)C2)n2ncnc2n1 (stereo not shown) [Compound 37] | 81 |  | 5.92 | 88 |  |  |  | 200 |  |  |  |  |  | 1050 | 50.7 |
